US12439919B2, “Active compound combinations” (priority 2019, dated 2025)

Assays:
[1] = test system: field peas; test: Field trials in field peas Western Canada 2018, yield (Example I); type: in vivo
Procedure: Field trials in field peas were conducted in Western Canada in spring/summer 2018.
(§1) Fertilization and herbicide applications were carried out according to the local agricultural practice.
(§2) Fluopyram was added to Delaro in a final concentration of 50, 75 and 90 g/ha.
The following products as shown in Table 20 were sprayed using a Backpack hand boom sprayer with flat fan spray nozzles applying 93.5 L/ha spray solution at crop BBCH growth stage 63.

[2] = test system: Venturia inaequalis; test: In vivo preventive test on Venturia test (apples) (Example G2); details: 10 days after inoculation
Text: (§3) A synergistic effect of fungicides is always present when the fungicidal activity of the active compound combinations exceeds the total of the activities of the active compounds when applied individually. The expected activity for a given combination of two active compounds can be calculated as follows (cf. Colby, S. R., “Calculating Synergistic and Antagonistic Responses of Herbicide Combinations,” Weeds 1967, 15, 20-22):
(§4) If • X is the efficacy when active compound A is applied at an application rate of m ppm (or g/ha), • Y is the efficacy when active compound B is applied at an application rate of n ppm (or g/ha), • Z is the efficacy when active compound […] ppm (or g/ha), • E1 is the efficacy when the active compounds A and B are applied at application rates of m and n ppm (or g/ha), respectively, and • E2 is the efficacy when the active compounds A, B and C are applied at application rates of m, n and r ppm (or g/ha), respectively, and then
(§5) The degree of efficacy, expressed in % is denoted. 0% means an efficacy which corresponds to that of the control while an efficacy of 100% means that no disease is observed.
(§6) If the actual fungicidal activity exceeds the calculated value, then the activity of the combination is superadditive, i.e., a synergistic effect exists. In this case, the efficacy which was actually observed must be greater than the value for the expected efficacy (E) calculated from the abovementioned formula.
(§7) Solvent: 24.5 parts by weight of acetone • 24.5 parts by weight of dimethyl sulfoxide
(§8) Emulsifier: 1 part by weight of alkylaryl polyglycol ether
(§9) To produce a suitable preparation of active compound, 1 part by weight of active compound is mixed with the stated amounts of solvent and emulsifier, and the concentrate is diluted with water to the desired concentration.
(§10) To test for preventive activity, young plants are sprayed with the preparation of active compound at the stated rate of application. After the spray coating has dried on, the plants are inoculated with an aqueous conidia suspension of the causal agent of apple scab (Venturia inaequalis) and then remain for 1 day in an incubation cabinet at approximately 20° C. and a relative atmospheric humidity of 100%.
The plants are then placed in a greenhouse at approximately 21° C. and a relative atmospheric humidity of approximately 90%.
The test is evaluated 10 days after the inoculation. 0% means an efficacy which corresponds to that of the untreated control, while an efficacy of 100% means that no disease is observed.

[3] = test system: lentils; test: Field trials in lentils Western Canada 2018, yield (Example H); type: in vivo
Procedure: Field trials in lentils were conducted in Western Canada in spring/summer 2018.
as §1, §2
The following products as shown in Table 18 were sprayed using a Backpack hand boom sprayer with air induction flat fan spray nozzles applying 93.5 L/Ha spray solution at crop BBCH—growth stage 62-63.

[4] = test system: Alternaria solani; test: In vivo preventive test on Alternaria test (tomatoes) (Example G1); details: 3 days after inoculation
Text: as §3, §4, §5, §6, §7, §8, §9
as §10, with “spore” for “conidia”, “Alternaria solani. The plants are” for “the causal agent of apple scab (Venturia inaequalis) and”, “placed” for “remain for 1 day”
The test is evaluated 3 days after the inoculation. 0% means an efficacy which corresponds to that of the untreated control while an efficacy of 100% means that no disease is observed.

O=C(NCCc1ncc(C(F)(F)F)cc1Cl)c1ccccc1C(F)(F)F [Fluopyram, N-[2-[3-chloro-5-(trifluoromethyl)-2-pyridinyl]ethyl]-2-(trifluoromethyl)benzamide]
Yield [% of Priaxor treatment-Priaxor is 100%] ([1]; BBCH 63, Fluopyram 50 g/ha): 98.9 % of Priaxor treatment
Yield [% of Priaxor treatment-Priaxor is 100%] ([1]; BBCH 63, Fluopyram 75 g/ha): 99.7 % of Priaxor treatment
Efficacy % ([2]; fluopyram 0.75 ppm): 0%
Efficacy % ([2]; fluopyram 1.5 ppm): 0%
Efficacy % ([2]; fluopyram 3 ppm): 5%
Yield [% of Priaxor treatment-Priaxor is 100%] ([3]; BBCH 62-63, Fluopyram 50 g/ha): 93.8 % of Priaxor treatment
Yield [% of Priaxor treatment-Priaxor is 100%] ([3]; BBCH 62-63, Fluopyram 75 g/ha): 96.3 % of Priaxor treatment
Efficacy % ([4]; fluopyram 0.75 ppm): 5%
Efficacy % ([4]; fluopyram 1.5 ppm): 8%
Efficacy % ([4]; fluopyram 3 ppm): 10%

CO/N=C(/C(=O)OC)c1ccccc1CO/N=C(\C)c1cccc(C(F)(F)F)c1 [Trifloxystrobin, methylalpha-(methoxyimino)-2-[[[[1-[3-(trifluoromethyl)phenyl]ethylidene]amino]oxy]methyl]-benzeneacetate]
Efficacy % ([2]; trifloxystrobin 0.9 ppm): 40%
Efficacy % ([2]; trifloxystrobin 1.8 ppm): 65%
Efficacy % ([2]; trifloxystrobin 3.6 ppm): 89%
Efficacy % ([4]; trifloxystrobin 0.9 ppm): 23%
Efficacy % ([4]; trifloxystrobin 1.8 ppm): 31%
Efficacy % ([4]; trifloxystrobin 3.6 ppm): 41%

OC(Cc1ccccc1Cl)(Cn1nc[nH]c1=S)C1(Cl)CC1 (stereo not shown) [Prothioconazole, 2-[2-(1-chlorocyclopropyl)-3-(2-chlorophenyl)-2-hydroxypropyl]-1,2-dihydro-3H-1,2,4-triazole-3-thione]
Efficacy % ([2]; prothioconazole 1.05 ppm): 0%
Efficacy % ([2]; prothioconazole 2.1 ppm): 17%
Efficacy % ([2]; prothioconazole 4.2 ppm): 41%
Efficacy % ([4]; prothioconazole 1.05 ppm): 0%
Efficacy % ([4]; prothioconazole 2.1 ppm): 0%
Efficacy % ([4]; prothioconazole 4.2 ppm): 10%
